Data as given in patent US20220402948A1, “EGFR INHIBITOR, COMPOSITION AND PREPARATION METHOD THEREFOR” (BETTA PHARMACEUTICALS CO., LTD., priority 2019, published 2022).
Where two headings read alike, the source gives them in different places.

Columns and labels:
IGF1R = IGF1R (Homo sapiens, UniProt P08069); assay: IGF1R kinase test (mobility variation analysis, Caliper EZ Reader); type: biochemical; conditions: kinase enzymatic activity, Table 1; read-out: EGFR IGF1R IC50
In short: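 Mobility-shift readout of substrate conversion, normalised to positive (no compound) and negative (no kinase) controls, gives % inhibition and IC50 by four-parameter fit. Compounds, 3-fold dilutions over 10 concentrations starting at 3000 nM, preincubated 10 min with kinase before ATP/substrate start; room temperature.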

A431 = A431 cell proliferation assay (CellTiter Glo, 72 hours); type: cell-based; conditions: cell proliferation, A431, 72 hours, Table 2, read-out: A431 IC50
In short: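 Luminescence (CellTiter-Glo) after 72 h treatment gives viability, fitted by nonlinear regression to yield IC50. Cells seeded at 2000 per well; nine 3-fold concentrations from 1000 nM, DMSO final 0.1% (0.5% for certain compounds).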

[1] = target: Ba/F3 cells with EGFR Δ19del/T790M/C797S mutation gene stably overexpressed (Homo sapiens, UniProt P00533, T790M/C797S, cells depend on it, form not given); assay: Ba/F3-Δ19del/T790M/C797S cell proliferation assay (CellTiter Glo, 72 hours); type: cell-based; conditions: Table 2, read-out: EGFR Δ19del/T790M/C797S IC50
Chain of Ba/F3 cells with EGFR Δ19del/T790M/C797S mutation gene stably overexpressed (P00533 with tags, fused parts or gaps DEL746-750/T790M/C797S, form open): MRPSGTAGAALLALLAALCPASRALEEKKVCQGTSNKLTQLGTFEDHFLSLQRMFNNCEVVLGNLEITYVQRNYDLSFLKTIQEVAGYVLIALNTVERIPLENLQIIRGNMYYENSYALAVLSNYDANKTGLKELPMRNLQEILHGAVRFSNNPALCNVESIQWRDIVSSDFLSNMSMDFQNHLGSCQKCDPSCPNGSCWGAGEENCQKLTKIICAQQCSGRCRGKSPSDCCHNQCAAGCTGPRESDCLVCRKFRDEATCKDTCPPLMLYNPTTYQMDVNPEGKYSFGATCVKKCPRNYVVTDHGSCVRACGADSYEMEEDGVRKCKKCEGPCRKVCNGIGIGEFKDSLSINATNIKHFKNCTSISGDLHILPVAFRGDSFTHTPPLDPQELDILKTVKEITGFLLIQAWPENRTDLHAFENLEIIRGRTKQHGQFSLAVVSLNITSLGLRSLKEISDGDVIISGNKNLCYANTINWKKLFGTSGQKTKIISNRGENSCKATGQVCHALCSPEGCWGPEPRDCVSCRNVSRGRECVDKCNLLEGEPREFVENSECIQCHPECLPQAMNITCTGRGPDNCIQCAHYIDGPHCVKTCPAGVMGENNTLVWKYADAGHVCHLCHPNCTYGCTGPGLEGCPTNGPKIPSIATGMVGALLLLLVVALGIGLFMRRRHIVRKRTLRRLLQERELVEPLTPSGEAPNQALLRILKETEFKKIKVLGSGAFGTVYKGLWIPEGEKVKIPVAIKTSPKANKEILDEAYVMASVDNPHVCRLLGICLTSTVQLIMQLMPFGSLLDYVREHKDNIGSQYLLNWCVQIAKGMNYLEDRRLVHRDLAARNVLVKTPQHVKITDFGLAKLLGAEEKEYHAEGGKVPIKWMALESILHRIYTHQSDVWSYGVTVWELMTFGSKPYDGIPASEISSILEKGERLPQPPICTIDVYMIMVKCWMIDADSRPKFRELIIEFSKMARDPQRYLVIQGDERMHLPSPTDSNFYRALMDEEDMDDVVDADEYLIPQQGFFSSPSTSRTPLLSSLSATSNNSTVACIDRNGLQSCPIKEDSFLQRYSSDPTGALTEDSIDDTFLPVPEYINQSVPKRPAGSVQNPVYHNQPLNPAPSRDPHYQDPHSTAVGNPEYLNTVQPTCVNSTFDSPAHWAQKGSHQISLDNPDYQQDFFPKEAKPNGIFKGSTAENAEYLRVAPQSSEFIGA
In short: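 Ba/F3 cells stably overexpressing wild-type EGFR or EGFR Δ19del/T790M/C797S were seeded at 2000 cells/well and incubated 72 h with compound. Viability was read by CellTiter-Glo luminescence, and IC50 came from a four-parameter logistic fit of signal against log concentration.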

EGFR WT = EGFR WT (Homo sapiens, UniProt P00533); assay: EGFR WT kinase test (mobility variation analysis, Caliper EZ Reader); type: biochemical; conditions: kinase enzymatic activity, Table 1
Chain of EGFR WT (P00533 25-1210): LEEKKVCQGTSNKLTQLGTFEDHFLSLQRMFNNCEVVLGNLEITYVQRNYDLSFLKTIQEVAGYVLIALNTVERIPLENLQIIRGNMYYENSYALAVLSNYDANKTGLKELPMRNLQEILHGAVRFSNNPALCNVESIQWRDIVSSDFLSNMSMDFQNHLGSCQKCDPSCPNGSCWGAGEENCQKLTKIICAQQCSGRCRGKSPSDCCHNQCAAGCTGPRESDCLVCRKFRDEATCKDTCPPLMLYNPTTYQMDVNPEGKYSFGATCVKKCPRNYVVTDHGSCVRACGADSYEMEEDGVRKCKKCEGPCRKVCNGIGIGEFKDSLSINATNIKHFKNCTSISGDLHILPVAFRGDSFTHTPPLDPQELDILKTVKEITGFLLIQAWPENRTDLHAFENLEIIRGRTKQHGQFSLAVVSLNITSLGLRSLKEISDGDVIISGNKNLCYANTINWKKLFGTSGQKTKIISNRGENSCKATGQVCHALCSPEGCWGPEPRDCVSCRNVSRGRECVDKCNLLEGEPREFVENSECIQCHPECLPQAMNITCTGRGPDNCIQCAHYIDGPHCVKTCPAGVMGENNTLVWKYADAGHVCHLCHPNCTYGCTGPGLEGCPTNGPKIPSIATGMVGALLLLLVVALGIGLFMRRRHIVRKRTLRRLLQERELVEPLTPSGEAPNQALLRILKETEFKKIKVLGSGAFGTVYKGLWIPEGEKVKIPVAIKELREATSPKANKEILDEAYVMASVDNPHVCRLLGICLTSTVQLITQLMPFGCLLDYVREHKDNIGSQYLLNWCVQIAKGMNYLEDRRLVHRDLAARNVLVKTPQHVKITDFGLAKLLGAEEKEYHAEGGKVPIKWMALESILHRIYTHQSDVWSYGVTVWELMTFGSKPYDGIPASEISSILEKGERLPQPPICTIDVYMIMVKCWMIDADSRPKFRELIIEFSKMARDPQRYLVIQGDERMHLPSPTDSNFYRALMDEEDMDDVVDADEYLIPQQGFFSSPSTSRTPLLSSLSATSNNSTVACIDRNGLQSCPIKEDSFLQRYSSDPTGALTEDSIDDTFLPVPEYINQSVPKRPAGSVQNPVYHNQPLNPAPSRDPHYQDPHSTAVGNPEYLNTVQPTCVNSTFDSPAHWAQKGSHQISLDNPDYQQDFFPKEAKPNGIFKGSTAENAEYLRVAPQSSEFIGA
In short: (§1)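 Read-out is substrate-to-product conversion by mobility shift, stopped after incubation at room temperature with ATP and substrate, following a 10-minute room-temperature compound–enzyme pre-incubation. IC50 obtained by four-parameter variable-slope fitting of inhibition normalized between enzyme-free and uninhibited controls.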

EGFRΔ19del/T790M/C797S = EGFRΔ19del/T790M/C797S (Homo sapiens, UniProt P00533, T790M/C797S, form not given); assay: EGFR Δ19del/T790M/C797S kinase test (mobility variation analysis, Caliper EZ Reader); type: biochemical; conditions: kinase enzymatic activity, Table 1
In short: as §1

[2] = target: Ba/F3-EGFR wild-type cell line (Homo sapiens, UniProt P00533); assay: Ba/F3-EGFR wild-type cell proliferation assay (CellTiter Glo, 72 hours); type: cell-based; conditions: Table 2, read-out: EGFR WT IC50
Chain of Ba/F3-EGFR wild-type cell line (P00533 whole entry, stated change not applied): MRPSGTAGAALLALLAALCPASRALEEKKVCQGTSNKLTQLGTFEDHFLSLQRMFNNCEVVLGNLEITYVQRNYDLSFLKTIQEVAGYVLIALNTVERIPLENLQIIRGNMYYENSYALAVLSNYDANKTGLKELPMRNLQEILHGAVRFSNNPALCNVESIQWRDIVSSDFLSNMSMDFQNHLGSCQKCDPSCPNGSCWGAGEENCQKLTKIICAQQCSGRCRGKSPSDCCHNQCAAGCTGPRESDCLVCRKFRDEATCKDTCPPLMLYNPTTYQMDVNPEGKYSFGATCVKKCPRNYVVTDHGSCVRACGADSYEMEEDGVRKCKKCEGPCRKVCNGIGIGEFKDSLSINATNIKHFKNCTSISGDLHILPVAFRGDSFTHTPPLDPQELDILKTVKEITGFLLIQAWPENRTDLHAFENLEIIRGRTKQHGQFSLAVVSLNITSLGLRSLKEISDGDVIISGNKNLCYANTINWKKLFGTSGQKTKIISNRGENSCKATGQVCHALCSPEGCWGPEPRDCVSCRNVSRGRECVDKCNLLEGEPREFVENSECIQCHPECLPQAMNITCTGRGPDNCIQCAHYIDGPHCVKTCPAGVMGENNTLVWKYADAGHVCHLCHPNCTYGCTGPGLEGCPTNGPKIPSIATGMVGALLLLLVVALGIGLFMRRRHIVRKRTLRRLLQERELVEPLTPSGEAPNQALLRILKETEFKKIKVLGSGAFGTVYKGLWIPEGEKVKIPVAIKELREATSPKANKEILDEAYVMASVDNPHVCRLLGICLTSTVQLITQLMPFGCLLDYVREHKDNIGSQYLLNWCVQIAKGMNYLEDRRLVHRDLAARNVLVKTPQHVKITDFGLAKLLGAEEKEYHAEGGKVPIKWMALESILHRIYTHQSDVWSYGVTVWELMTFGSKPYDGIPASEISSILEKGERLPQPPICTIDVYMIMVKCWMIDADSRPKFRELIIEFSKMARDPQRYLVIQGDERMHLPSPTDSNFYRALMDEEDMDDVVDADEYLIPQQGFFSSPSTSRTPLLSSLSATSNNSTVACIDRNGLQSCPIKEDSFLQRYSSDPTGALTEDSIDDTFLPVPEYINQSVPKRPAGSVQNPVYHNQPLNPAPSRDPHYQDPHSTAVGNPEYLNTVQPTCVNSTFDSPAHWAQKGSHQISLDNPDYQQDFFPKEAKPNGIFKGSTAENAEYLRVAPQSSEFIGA
Method: Cell line: Ba/F3 cells with EGFR Δ19del/T790M/C797S mutation gene stably overexpressed named Ba/F3-Δ119del/T90M/C797S, and A431 and Ba/F3-EGFR wild-type cell line.
a) Centrifuge the growth cells in logarithmic phase at 1000 rpm for 5 minutes, resuspend the cells in culture medium, and then count the cells;
b) Inoculate the cells into a 96-well cell culture plate with a density of 2000 cells/well;
b) Incubate cells in an incubator for another 72 hours.
a) Take out the 96-well cell culture plate and add 50 μl CTG reagent (CellTiter Glo kit, promega, Cat #G7573);
b) Shake the plate for 2 minutes and let cool at room temperature for 10 minutes;
c) Read luminous signal value with PerkinElmer reader,
Analysis of Experimental Data
The data were analyzed by GraphPad Prism 6.0 software to obtain the fitting curve of compound activity.
Y=Min+(Max−Min)/(1+10^((Log IC50−X)*slope));
X: Logarithm of compound concentration; Y: luminous signal.

Chain of IGF1R (P08069 31-1367, species assumed): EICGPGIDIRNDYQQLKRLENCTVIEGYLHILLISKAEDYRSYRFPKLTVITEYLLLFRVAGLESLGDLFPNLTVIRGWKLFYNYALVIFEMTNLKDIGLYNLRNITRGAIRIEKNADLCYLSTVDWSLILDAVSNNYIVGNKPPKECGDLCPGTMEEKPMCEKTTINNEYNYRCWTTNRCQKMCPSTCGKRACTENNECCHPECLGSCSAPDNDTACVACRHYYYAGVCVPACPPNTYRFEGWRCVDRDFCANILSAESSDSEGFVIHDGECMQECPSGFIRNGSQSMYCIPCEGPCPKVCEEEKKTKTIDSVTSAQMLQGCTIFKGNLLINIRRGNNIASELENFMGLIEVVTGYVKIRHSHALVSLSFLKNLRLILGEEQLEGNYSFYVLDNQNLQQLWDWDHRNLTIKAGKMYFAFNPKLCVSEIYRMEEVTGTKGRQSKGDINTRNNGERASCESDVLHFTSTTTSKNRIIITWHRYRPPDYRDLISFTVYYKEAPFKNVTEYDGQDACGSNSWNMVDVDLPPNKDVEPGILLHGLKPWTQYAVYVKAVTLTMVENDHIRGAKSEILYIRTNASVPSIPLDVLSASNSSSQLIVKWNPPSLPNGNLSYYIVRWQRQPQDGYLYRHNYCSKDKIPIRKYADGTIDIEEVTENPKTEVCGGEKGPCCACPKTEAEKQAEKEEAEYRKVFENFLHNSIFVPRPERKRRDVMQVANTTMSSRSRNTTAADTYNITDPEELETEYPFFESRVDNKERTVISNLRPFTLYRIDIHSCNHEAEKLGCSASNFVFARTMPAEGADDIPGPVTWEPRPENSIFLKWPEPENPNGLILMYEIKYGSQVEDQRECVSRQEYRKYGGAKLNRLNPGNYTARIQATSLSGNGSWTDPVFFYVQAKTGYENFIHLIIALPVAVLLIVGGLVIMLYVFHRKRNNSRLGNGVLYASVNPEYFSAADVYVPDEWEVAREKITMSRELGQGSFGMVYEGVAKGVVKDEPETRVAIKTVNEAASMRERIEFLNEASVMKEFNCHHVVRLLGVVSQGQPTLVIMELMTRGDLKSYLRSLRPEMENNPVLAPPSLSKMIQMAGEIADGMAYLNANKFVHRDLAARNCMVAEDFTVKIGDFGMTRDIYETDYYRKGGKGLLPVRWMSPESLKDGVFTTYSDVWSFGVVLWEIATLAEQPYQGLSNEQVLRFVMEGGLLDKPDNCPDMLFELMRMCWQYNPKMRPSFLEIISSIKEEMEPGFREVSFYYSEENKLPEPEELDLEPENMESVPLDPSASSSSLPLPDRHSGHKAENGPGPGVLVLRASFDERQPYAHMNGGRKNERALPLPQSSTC

Row | SMILES | IC50 (IGF1R) | IC50 (A431; Homo sapiens, A-431, 72 h) | GI50 [1] | IC50 (EGFR WT) | IC50 (EGFRΔ19del/T790M/C797S) | GI50 [2] | IC50 (A431)
1 | COc1cc(N2CCN(C)CC2)c(C)cc1Nc1ncc(Br)c(Nc2ccc(-c3nccs3)cc2P(C)(C)=O)n1 [Compound K-029, (2-((5-Bromo-2-((2-methoxy-5-methyl-4-(4-methylpiperazin-1-yl)phenyl)amino)pyrimidin-4-yl)amino)-5-(thiazol-2-yl)phenyl)dimethylphosphine oxide] | 91 nM | 3180 nM | 15.2 nM | 60.6 nM | 0.3 nM | 52.1 nM | 
2 | COc1cc(N2CCOCC2)c(C#N)cc1Nc1ncc(Br)c(Nc2ccc(-c3nccs3)cc2P(C)(C)=O)n1 [Compound K-027, 5-((5-Bromo-4-((2-(dimethylphosphineoxide)-4-(thiazol-2-yl)phenyl)amino)pyrimidin-2-yl)amino)-4-methoxy-2-morpholinobenzonitrile] | 364 nM | 4050 nM | 12.9 nM | 50.2 nM | 0.6 nM | 453 nM | 
3 | COc1cc(Nc2ncc(Br)c(Nc3ccc(-c4cnn(C)n4)c(F)c3P(C)(C)=O)n2)c(C)cc1N1CC(C)OC(C)C1 (stereo not drawn) [Compound K-037, (6-((5-Bromo-2-((4-(2,6-dimethylmorpholine)-5-methoxy-2-methylphenyl)amino)pyrimidin-4-yl)amino)-2-fluoro-3-(2-methyl-2H-1,2,3-triazol-4-yl)phenyl)dimethylphosphine oxide] | 251 nM | 7530 nM | 10.9 nM | 125 nM | 0.8 nM | 374 nM | 
4 | COc1cnn(-c2ccc(Nc3nc(Nc4cc(OC)c(N5CCC(N6CCN(C)CC6)CC5)cc4C)ncc3Br)c(P(C)(C)=O)c2)c1 [Compound K-018, (2-((5-Bromo-2-((5-methoxy-2-methyl-4-(4-(4-methylpiperazin-1-yl)piperidin-1-yl)phenyl)amino)pyrimidin-4-yl)amino)-5-(4-methoxy-1H-pyrazol-1-yl)phenyl)dimethylphosphine oxide] | 67.2 nM | 1060 nM | 9.7 nM | 17.1 nM | 0.2 nM | 295 nM | 
5 | COc1cc(Nc2ncc(Br)c(Nc3ccc(-c4cnn(C)c4)cc3P(C)(C)=O)n2)c(C)cc1N1CCOCC1 [Compound K-030, (2-((5-Bromo-2-((5-methoxy-2-methyl-4-morpholinophenyl)amino)pyrimidin-4-yl)amino)-5-(1-methyl-1H-pyrazol-4-yl)phenyl)dimethylphosphine oxide] | 21.5 nM | 615 nM | 3.6 nM | 7.8 nM | 0.2 nM | 132 nM | 
6 | COc1cnn(-c2ccc(Nc3nc(Nc4cc(OC)c(N5CCOCC5)cc4C4CC4)ncc3Br)c(P(C)(C)=O)c2)c1 [Compound K-026, (2-((5-Bromo-2-((2-cyclopropyl-5-methoxy-4-morpholinophenyl)amino)pyrimidin-4-yl)amino)-5-(4-methoxy-1H-pyrazol-1-yl)phenyl)dimethylphosphine oxide] | 413 nM | > 10000 nM | 17.3 nM | 188 nM | 0.6 nM | 946 nM | 
7 | COc1cnn(-c2ccc(Nc3nc(Nc4cc(OC)c(N5CCC(O)CC5)cc4C)ncc3Br)c(P(C)(C)=O)c2)c1 [Compound K-039, (2-((5-Bromo-2-((4-(4-hydroxypiperidin-1-yl)-5-methoxy-2-methylphenyl)amino)pyrimidin-4-yl)amino)-5-(4-methoxy-1H-pyrazol-1-yl)phenyl)dimethylphosphine oxide] | 45.6 nM | > 10000 nM | 27.5 nM | 14.3 nM | 0.1 nM | 523 nM | 

The next lines start with the values.

Row | IC50 (IGF1R) | IC50 (A431; Homo sapiens, A-431, 72 h) | GI50 [1] | IC50 (EGFR WT) | IC50 (EGFRΔ19del/T790M/C797S) | GI50 [2] | IC50 (A431) | SMILES
8 | 184 nM | 749 nM | 17.8 nM | 19.3 nM | 0.4 nM | 196 nM |  | CCc1cc(Nc2ncc(Cl)c(Nc3ccc(-c4cnccn4)cc3P(C)(C)=O)n2)c(OC)cc1N1CCC(N2CCN(C)CC2)CC1 [Compound 32, (2-((5-Chloro-2-((5-ethyl-2-methoxy-4-(4-(4-methylpiperazin-1-yl)piperidin-1-yl)phenyl)amino)pyrimidin-4-yl)amino)-5-(pyrazin-2-yl)phenyl)dimethylphosphine oxide]
9 | 67.9 nM | 773 nM | 3.3 nM | 10.8 nM | 0.4 nM | 181 nM |  | CCc1cc(Nc2ncc(Br)c(Nc3ccc(-c4cnn(C)n4)cc3P(C)(C)=O)n2)c(OC)cc1N1CCC(N2CCN(C)CC2)CC1 [Compound 8, (2-((5-Bromo-2-((5-ethyl-2-methoxy-4-(4(4-methylpiperazin-1-yl)piperidin-1-yl)phenyl)amino)pyrimidin-4-yl)amino)-5-(2-methyl-2H-1,2,3-triazol-4-yl)phenyl)dimethylphosphine oxide]
10 | 80 nM | 2660 nM | 13.4 nM | 16 nM | 0.2 nM | 194 nM |  | CCc1cc(Nc2ncc(Br)c(Nc3ccc(-c4ncc(F)cn4)cc3P(C)(C)=O)n2)c(OC)cc1N1CCC(N2CCN(C)CC2)CC1 [Compound 29, (2-((5-Bromo-2-((5-ethyl-2-methoxy-4-(4-(4-methylpiperazin-1-yl)piperidin-1-yl)phenyl)amino)pyrimidin-4-yl)amino)-5-(5-fluoropyrimidin-2-yl)phenyl)dimethylphosphine oxide]
11 | 30.2 nM | 456 nM | 4.3 nM | 14.2 nM | 0.5 nM | 127 nM |  | CCCc1cc(Nc2ncc(Br)c(Nc3ccc(-c4cnn(C)c4)cc3P(C)(C)=O)n2)c(OC)cc1N1CCC(N2CCN(C)CC2)CC1 [Compound K-043, (2-((5-Bromo-2-((2-methoxy-4-(4-(4-methylpiperazin-1-yl)piperidin-1-yl)-5-propylphenyl)amino)pyrimidin-4-yl)amino)-5-(1-methyl-1H-pyrazol-4-yl)phenyl)dimethylphosphine oxide]
12 | 432 nM | 1470 nM | 38.4 nM | 31.7 nM | 0.8 nM | 373 nM |  | CCc1cc(Nc2ncc(Br)c(Nc3ccc(-c4ccccc4C)cc3P(C)(C)=O)n2)c(OC)cc1N1CCC(N2CCOCC2)CC1 [Compound K-049, (4-((5-Bromo-2-((5-ethyl-2-methoxy-4-(4-morpholinopiperidin-1-yl)phenyl)amino)pyrimidin-4-yl)amino)-2′-methyl-[1,1′-biphenyl]-3-yl)dimethylphosphine oxide]
13 | 268 nM | 1510 nM | 19.1 nM | 32 nM | 0.2 nM | 343 nM |  | CCc1cc(Nc2ncc(Br)c(Nc3ccc(-n4cc(OC)cn4)cc3P(C)(C)=O)n2)c(OC)cc1N1CCC(N2CCN(C)CC2)CC1 [Compound K-054, (2-((5-Bromo-2-((5-ethyl-2-methoxy-4-(4-(4-methylpiperazin-1-yl)piperidin-1-yl)phenyl)amino)pyrimidin-4-yl)amino)-5-(4-methoxy-1H-pyrazol-1-yl)phenyl)dimethylphosphine oxide]
14 | 28.7 nM | 306 nM | 7.6 nM | 9.9 nM | 0.5 nM | 34.8 nM |  | CCc1cc(Nc2ncc(Br)c(Nc3ccc(-c4cnn(C)c4)c(C)c3P(C)(C)=O)n2)c(OC)cc1N1CCC(N2CCN(C)CC2)CC1 [Compound K-046, (6-((5-Bromo-2-((5-ethyl-2-methoxy-4-(4-(4-methylpiperazin-1-yl)piperidin-1-yl)phenyl)amino)pyrimidin-4-yl)amino)-2-methyl-3-(1-methyl-1H-pyrazol-4-yl)phenyl)dimethylphosphine oxide]
15 | 395 nM |  | 26.3 nM | 41 nM | 1.3 nM | 1290 nM | 2300 nM | CCc1cc(Nc2ncc(Br)c(Nc3ccc(-c4cncc(OC)n4)cc3P(C)(C)=O)n2)c(OC)cc1N1CCC(N2CCN(C)CC2)CC1 [Compound 59, (2-((5-Bromo-2-((5-ethyl-2-methoxy-4-(4-(4-methylpiperazin-1-yl)piperidin-1-yl)phenyl)amino)pyrimidin-4-yl)amino)-5-(6-methoxypyrazin-2-yl)phenyl)dimethylphosphine oxide]
